In publication PMC10752118 (Therapeutic Advances in Medical Oncology, 2023):

What was measured:
[1] = tested on: treatment refractory HER2 over-expressing breast cancer; settings: in combination with weekly trastuzumab and paclitaxel, nine patients; cited from earlier work
[2] = prior single-agent study; cited from earlier work
[3] = cited from earlier work
[4] = Plasma PK, noncompartmental analysis; type: in vivo, human; settings: for observed clearance (CL), dose dependence: 1 h IV infusion
[5] = tested on: uridine diphosphate-glucoronosyltransferases; settings: cited from earlier work
[6] = tested on: P-glycoprotein (P-gp) multidrug transporter; settings: cited from earlier work
HSP90 = settings: read-out: dissociation constant (Kd); cited from earlier work
[7] = tested on: patients with advanced TNBC; experiment: Phase Ib 3 + 3 dose escalation: DLT assessment, MTD and RP2D; type: in vivo, human
[8] = Day 7 (no paclitaxel), DL1, onalespib 120 mg/m^2 IV, geometric mean ± SD
[9] = Day 7 (no paclitaxel), DL2, onalespib 150 mg/m^2 IV, geometric mean ± SD
[10] = Day 7 (no paclitaxel), DL3, onalespib 200 mg/m^2 IV, geometric mean ± SD
[11] = Day 7 (no paclitaxel), DL4, onalespib 260 mg/m^2 IV, geometric mean ± SD
[12] = Day 8 (with 80 mg/m^2 paclitaxel), DL1, onalespib 120 mg/m^2 IV, geometric mean ± SD
[13] = Day 8 (with 80 mg/m^2 paclitaxel), DL2, onalespib 150 mg/m^2 IV, geometric mean ± SD
[14] = Day 8 (with 80 mg/m^2 paclitaxel), DL3, onalespib 200 mg/m^2 IV, geometric mean ± SD
[15] = Day 8 (with 80 mg/m^2 paclitaxel), DL4, onalespib 260 mg/m^2 IV, geometric mean ± SD
[16] = Day 1 (no onalespib), 80 mg/m^2 paclitaxel IV, DL1, geometric mean ± SD
[17] = Day 1 (no onalespib), 80 mg/m^2 paclitaxel IV, DL2, geometric mean ± SD
[18] = Day 1 (no onalespib), 80 mg/m^2 paclitaxel IV, DL3, geometric mean ± SD
[19] = Day 1 (no onalespib), 80 mg/m^2 paclitaxel IV, DL4, geometric mean ± SD

In the case of CC(C)c1cc(-c2n[nH]c(=O)n2-c2ccc3c(ccn3C)c2)c(O)cc1O [ganetespib], the partial response [1] is given as 22% and the stable disease [1] is given as 56%.
For CC(C)c1cc(C(=O)N2Cc3ccc(CN4CCN(C)CC4)cc3C2)c(O)cc1O [onalespib, (2,4-dihydroxy-5-isopropylphenyl)-[5-(4-methylpiperazin-1-ylmethyl)-1,3-dihydroisoindol-2-yl]methanone], the maximum tolerated dose [2] is given as 260 mg/m^2, the water solubility [3] is given as “High water solubility” and the “exposure (AUCinf and Cmax), dose proportionality” value ([4]; 120 to 260 mg/m^2) is given as “approximately dose-proportional”. The “observed clearance (CL), dose dependence” value [4] was “independent of dose”, the CL [4, 8] was 42.6 ± 4.99 L/h/m^2 and the Vz [4, 8] was 344 ± 134 L/m^2. The CL [4, 9] was 51.1 ± 4.37 L/h/m^2, the Vz [4, 9] was 443 ± 23.2 L/m^2 and the CL [4, 10] was 48.4 ± 29.2 L/h/m^2. It also gave a Vz [4, 10] of 522 ± 273 L/m^2, a CL [4, 11] of 41.6 ± 10.0 L/h/m^2 and a Vz [4, 11] of 427 ± 102 L/m^2. It also gave a CL [4, 12] of 47.9 ± 2.03 L/h/m^2, a Vz [4, 12] of 730 ± 121 L/m^2 and a CL [4, 13] of 64.3 ± 21.0 L/h/m^2. It also gave a Vz [4, 13] of 801 ± 263 L/m^2, a CL [4, 14] of 51.4 ± 14.8 L/h/m^2 and a Vz [4, 14] of 717 ± 282 L/m^2. For the same compound, the CL [4, 15] was 45.2 ± 13.4 L/h/m^2, the Vz [4, 15] was 598 ± 208 L/m^2 and the “effect of combination with paclitaxel on overall exposure (AUCinf and Cmax)” value ([4]; cycle 1 day –7 versus day 8) was “no apparent changes in overall exposure”. It also gave an AUC(0-inf) ([4]; human, plasma, intravenous, AUCinf, range, single agent, cycle 1, day –7, all DLs (120 to 260 mg/m^2)) of 4.3 to 22.7 µM·h, a half-life ([4]; human, plasma, intravenous, mean t1/2, range across DLs, as a single agent only) of 6.04 to 7.32 h and an AUC(0-inf) ([4]; human, plasma, iv, 120 mg/m2, AUCinf, Day 7 (no paclitaxel), DL1, onalespib 120 mg/m^2 IV, geometric mean ± SD) of 6.72 ± 0.688 µM·h. It also gave a Cmax ([4]; human, plasma, iv, 120 mg/m2, Cmax, Day 7 (no paclitaxel), DL1, onalespib 120 mg/m^2 IV, geometric mean ± SD) of 2.8 ± 0.844 µM, a half-life ([4]; human, plasma, iv, 120 mg/m2, t1/2, Day 7 (no paclitaxel), DL1, onalespib 120 mg/m^2 IV, median (range)) of 7.23 h and an AUC(0-inf) ([4]; human, plasma, iv, 200 mg/m2, AUCinf, Day 7 (no paclitaxel), DL3, onalespib 200 mg/m^2 IV, geometric mean ± SD) of 10 ± 4.35 µM·h. The Cmax ([4]; human, plasma, iv, 200 mg/m2, Cmax, Day 7 (no paclitaxel), DL3, onalespib 200 mg/m^2 IV, geometric mean ± SD) was 3.21 ± 2.56 µM, the half-life ([4]; human, plasma, iv, 200 mg/m2, t1/2, Day 7 (no paclitaxel), DL3, onalespib 200 mg/m^2 IV, median (range)) was 7.32 h and the AUC(0-inf) ([4]; human, plasma, iv, 260 mg/m2, AUCinf, Day 7 (no paclitaxel), DL4, onalespib 260 mg/m^2 IV, geometric mean ± SD) was 15.2 ± 3.84 µM·h. It also gave a Cmax ([4]; human, plasma, iv, 260 mg/m2, Cmax, Day 7 (no paclitaxel), DL4, onalespib 260 mg/m^2 IV, geometric mean ± SD) of 5.36 ± 2.8 µM, a half-life ([4]; human, plasma, iv, 260 mg/m2, t1/2, Day 7 (no paclitaxel), DL4, onalespib 260 mg/m^2 IV, median (range)) of 6.83 h and an AUC(0-inf) ([4]; human, plasma, iv, AUCinf, Day 8 (with 80 mg/m^2 paclitaxel), DL1, onalespib 120 mg/m^2 IV, geometric mean ± SD) of 6.1 ± 0.244 µM·h. For the same compound, the AUC(0-inf) ([4]; human, plasma, iv, AUCinf, Day 8 (with 80 mg/m^2 paclitaxel), DL2, onalespib 150 mg/m^2 IV, geometric mean ± SD) was 5.64 ± 2.32 µM·h, the AUC(0-inf) ([4]; human, plasma, iv, AUCinf, Day 8 (with 80 mg/m^2 paclitaxel), DL3, onalespib 200 mg/m^2 IV, geometric mean ± SD) was 9.46 ± 2.24 µM·h and the AUC(0-inf) ([4]; human, plasma, iv, AUCinf, Day 8 (with 80 mg/m^2 paclitaxel), DL4, onalespib 260 mg/m^2 IV, geometric mean ± SD) was 14 ± 4.66 µM·h. It also gave a Cmax ([4]; human, plasma, iv, Cmax, Day 8 (with 80 mg/m^2 paclitaxel), DL1, onalespib 120 mg/m^2 IV, geometric mean ± SD) of 2.74 ± 0.676 µM, a Cmax ([4]; human, plasma, iv, Cmax, Day 8 (with 80 mg/m^2 paclitaxel), DL2, onalespib 150 mg/m^2 IV, geometric mean ± SD) of 2.41 ± 1.03 µM and a Cmax ([4]; human, plasma, iv, Cmax, Day 8 (with 80 mg/m^2 paclitaxel), DL3, onalespib 200 mg/m^2 IV, geometric mean ± SD) of 4.64 ± 2.64 µM. For the same compound, the Cmax ([4]; human, plasma, iv, Cmax, Day 8 (with 80 mg/m^2 paclitaxel), DL4, onalespib 260 mg/m^2 IV, geometric mean ± SD) was 5.53 ± 4.5 µM, the half-life ([4]; human, plasma, iv, t1/2, Day 8 (with 80 mg/m^2 paclitaxel), DL1, onalespib 120 mg/m^2 IV, median (range)) was 10.5 h and the half-life ([4]; human, plasma, iv, t1/2, Day 8 (with 80 mg/m^2 paclitaxel), DL2, onalespib 150 mg/m^2 IV, median (range)) was 8.55 h. For the same compound, the half-life ([4]; human, plasma, iv, t1/2, Day 8 (with 80 mg/m^2 paclitaxel), DL3, onalespib 200 mg/m^2 IV, median (range)) was 9.62 h, the half-life ([4]; human, plasma, iv, t1/2, Day 8 (with 80 mg/m^2 paclitaxel), DL4, onalespib 260 mg/m^2 IV, median (range)) was 9.11 h and the glucuronidation substrate status [5] was “substrate for glucuronidation”. The “interaction with P-gp” value [6] was “substrate and moderate inhibitor of P-gp”, the Kd (HSP90) was 0.71 nM and the MTD of onalespib ([7]; combined with paclitaxel 80 mg/m^2, IV days 1, 8, 15 of 28-day cycle) was 260 mg/m^2. It also gave an RP2D of onalespib ([7]; given with paclitaxel 80 mg/m^2, IV days 1, 8, 15 of 28-day cycle) of 260 mg/m^2.
In the case of CC(=O)O[C@H]1C(=O)[C@@]2(C)[C@H]([C@H](OC(=O)c3ccccc3)[C@]3(O)C[C@H](OC(=O)[C@H](O)[C@@H](NC(=O)c4ccccc4)c4ccccc4)C(C)=C1C3(C)C)[C@]1(OC(C)=O)CO[C@@H]1C[C@@H]2O [paclitaxel], the “observed clearance (CL), dose dependence” value [4] is reported as “independent of dose”, the CL [4, 16] is reported as 12.6 ± 2.63 L/h/m^2 and the Vz [4, 16] is reported as 279 ± 41.9 L/m^2. It also gave an AUCinf [4, 17] of 5.59 ± 0.185 µM·h, a CL [4, 17] of 16.8 ± 0.535 L/h/m^2 and a Cmax [4, 17] of 4.17 ± 0.299 µM. The Vz [4, 17] was 216 ± 19.3 L/m^2, the CL [4, 18] was 15.3 ± 4.77 L/h/m^2 and the Cmax [4, 18] was 4.45 ± 2.28 µM. For the same compound, the Vz [4, 18] was 206 ± 89.8 L/m^2, the CL [4, 19] was 11.9 ± 2.78 L/h/m^2 and the Cmax [4, 19] was 4.68 ± 1.82 µM. For the same compound, the Vz [4, 19] was 181 ± 46.0 L/m^2, the t1/2 ([4]; Day 8, 80 mg/m^2 paclitaxel IV with onalespib 120 mg/m^2, DL1, median (range)) was 15.0 (13.1–15.4) h and the AUC(0-inf) ([4]; human, plasma, intravenous, 80 mg/m^2, Mean AUCinf, range across DLs, single agent, cycle 1, day 1, 80 mg/m^2) was 5.59 to 7.75 µM·h. For the same compound, the Cmax ([4]; human, plasma, intravenous, 80 mg/m^2, Mean Cmax, range across DLs, single agent, cycle 1, day 1, 80 mg/m^2) was 3.87 to 4.68 µM, the AUC(0-inf) ([4]; human, plasma, intravenous, mean AUCinf, range across all four DLs, cycle 1, day 8, 80 mg/m^2 in combination with onalespib) was 6.5 to 8.72 µM·h and the Cmax ([4]; human, plasma, intravenous, mean Cmax, range across all four DLs, cycle 1, day 8, 80 mg/m^2 in combination with onalespib) was 2.99 to 4.23 µM. For the same compound, the AUC(0-inf) ([4]; human, plasma, iv, 80 mg/m2, AUCinf, Day 1 (no onalespib), 80 mg/m^2 paclitaxel IV, DL1, geometric mean ± SD) was 7.44 ± 1.54 µM·h, the AUC(0-inf) ([4]; human, plasma, iv, 80 mg/m2, AUCinf, Day 1 (no onalespib), 80 mg/m^2 paclitaxel IV, DL3, geometric mean ± SD) was 6.1 ± 2.24 µM·h and the AUC(0-inf) ([4]; human, plasma, iv, 80 mg/m2, AUCinf, Day 1 (no onalespib), 80 mg/m^2 paclitaxel IV, DL4, geometric mean ± SD) was 7.75 ± 1.75 µM·h. It also gave a half-life ([4]; human, plasma, iv, 80 mg/m2, t1/2, Day 1 (no onalespib), 80 mg/m^2 paclitaxel IV, DL2, median (range)) of 9.18 h, a half-life ([4]; human, plasma, iv, 80 mg/m2, t1/2, Day 1 (no onalespib), 80 mg/m^2 paclitaxel IV, DL3, median (range)) of 9.06 h and a half-life ([4]; human, plasma, iv, 80 mg/m2, t1/2, Day 1 (no onalespib), 80 mg/m^2 paclitaxel IV, DL4, median (range)) of 10.6 h. The AUC(0-inf) ([4]; human, plasma, iv, AUCinf, Day 8, 80 mg/m^2 paclitaxel IV with onalespib 120 mg/m^2, DL1, geometric mean ± SD) was 7.97 ± 2.95 µM·h, the AUC(0-inf) ([4]; human, plasma, iv, AUCinf, Day 8, 80 mg/m^2 paclitaxel IV with onalespib 200 mg/m^2, DL3, geometric mean ± SD) was 6.47 ± 2.18 µM·h and the AUC(0-inf) ([4]; human, plasma, iv, AUCinf, Day 8, 80 mg/m^2 paclitaxel IV with onalespib 260 mg/m^2, DL4, geometric mean ± SD) was 8.72 ± 2.54 µM·h. For the same compound, the Cmax ([4]; human, plasma, iv, Cmax, Day 8, 80 mg/m^2 paclitaxel IV with onalespib 120 mg/m^2, DL1, geometric mean ± SD) was 2.99 ± 3.59 µM, the Cmax ([4]; human, plasma, iv, Cmax, Day 8, 80 mg/m^2 paclitaxel IV with onalespib 200 mg/m^2, DL3, geometric mean ± SD) was 4.23 ± 2.18 µM and the half-life ([4]; human, plasma, iv, t1/2, Day 8, 80 mg/m^2 paclitaxel IV with onalespib 200 mg/m^2, DL3, median (range)) was 8.67 h. For the same compound, the half-life ([4]; human, plasma, iv, t1/2, Day 8, 80 mg/m^2 paclitaxel IV with onalespib 260 mg/m^2, DL4, median (range)) was 10.7 h and the “interaction with P-gp” value [6] was “substrate for MDR1 P-gp”.
